The values that follow come from ChEMBL document CHEMBL1138655, “Synthesis and biological studies of 1-amino beta-carbolines” (Bioorg Med Chem Lett, 2004).

For assay [1], the system named is Leishmania donovani. Kind of assay: inhibitory concentration against Leishmania donovani was determined. It counts as functional, organism-based.
In assay [2] the test system is Plasmodium falciparum. As to the kind of experiment: Inhibitory concentration for Plasmodium falciparum. It counts as functional, organism-based.
Assay [3] has as its system Trypanosoma cruzi. Kind of assay: inhibitory concentration against Trypanosoma cruzi was determined. The format is functional, organism-based.
The test system of assay [4] is Trypanosoma brucei rhodesiense. Kind of assay: inhibitory concentration against Trypanosoma brucei rhodesiense determined. The format is functional, organism-based.
In assay [5] the test system is MDA-MB-231. Kind of assay: Concentration required for 50% growth inhibition against human breast MDA-MB-231/ATCC cell lines. The format is functional.
The test system of assay [6] is OVCAR-3. Kind of assay: Concentration required for 50% growth inhibition against human ovarian OVCAR-3 cell lines. The format is functional.
The test system of assay [7] is K562. As to the kind of experiment: Concentration required for 50% growth inhibition against human leukemia K-562 cell lines. It counts as functional.
The subject of assay [8] is M14. As to the kind of experiment: Concentration required for 50% growth inhibition against human melanoma M14 cell lines. It counts as functional.
Assay [9] has as its system UACC-62. Kind of assay: Concentration required for 50% growth inhibition against human melanoma UACC-62 cell lines. It counts as functional.
Assay [10] has as its system HOP-92. As to the kind of experiment: Concentration required for 50% growth inhibition against human non small cell lung cancer HOP-92. It counts as functional.
Assay [11] has as its system HT-29. Kind of assay: Concentration required for 50% growth inhibition against human colon HT-29 cell lines. It counts as functional.

Values after ≈ are worked out from the molar mass of the structure shown.

As for `OCCNc1[nH]ccc2c3ccccc3nc1-2`, the concentration for half-maximal inhibition (IC50) in assay [1] was more than 90 µg/mL; in assay [2], 2.4 µg/mL (≈ 10.6 µM); in [3] it was 4.25 µg/mL (≈ 18.7 µM); in [4], 1.8 µg/mL (≈ 7.92 µM).
As to `CCN(CC)N1CCN(c2[nH]ccc3c4ccccc4nc2-3)CC1`, the half-inhibitory concentration (IC50) in assay [1] was more than 90 µg/mL; in [2] it was 0.41 µg/mL (≈ 1.27 µM); in assay [3], 5.8 µg/mL (≈ 17.9 µM); in [4] it was 0.63 µg/mL (≈ 1.95 µM).
`c1ccc2c3cc[nH]c(N4CCN(N5CCCCCC5)CC4)c-3nc2c1`: the IC50 in assay [1] was more than 90 µg/mL; in [2], 0.35 µg/mL (≈ 1 µM); in [3] it was 6.5 µg/mL (≈ 18.6 µM); in [4], 0.61 µg/mL (≈ 1.75 µM).
As to `OC1CCCN(c2[nH]ccc3c4ccccc4nc2-3)C1` (configuration not stated), the IC50 in assay [1] was more than 90 µg/mL; in [2] it was 3.4 µg/mL (≈ 12.7 µM); in assay [3], 19.3 µg/mL (≈ 72.4 µM); in assay [4], 8.9 µg/mL (≈ 33.3 µM).
With `c1ccc2c3cc[nH]c(N4CCN(N5CCCCC5)CC4)c-3nc2c1`, the concentration for half-maximal inhibition (IC50) is more than 90 µg/mL in assay [1], 0.39 µg/mL (≈ 1.16 µM) in assay [2], 2.35 µg/mL (≈ 7.01 µM) in [3] and 1.8 µg/mL (≈ 5.37 µM) in assay [4].
Regarding `CN1CCN(c2nccc3c2[nH]c2ccccc23)CC1`, the concentration for 50% growth inhibition (GI50) in assay [5] came to 3.9 µM; in assay [6], 19.9 µM; in assay [7], 22.5 µM; in assay [8] it was 14.9 µM; in [9], 17.8 µM; in assay [10], 18.6 µM. The IC50 was more than 90 µg/mL in assay [1], 0.62 µg/mL (≈ 2.33 µM) in [2], 4.3 µg/mL (≈ 16.1 µM) in [3] and 0.63 µg/mL (≈ 2.37 µM) in assay [4].
`c1ccc2c(c1)[nH]c1c(N3CCOCC3)nccc12`: the half-maximal inhibitory concentration (IC50) in assay [1] is more than 90 µg/mL; in [2] it was 4.59 µg/mL (≈ 18.1 µM); in [3], 25.1 µg/mL (≈ 99.1 µM); in assay [4], 18.2 µg/mL (≈ 71.9 µM).
In the case of `CCN(CC)CCCNc1nccc2c1[nH]c1ccccc12`, the GI50 stood at 5.2 µM in assay [5]; 2.7 µM in assay [11]; 1.6 µM in assay [6]; 3.2 µM in [7]; 2 µM in assay [8]; 2.3 µM in assay [9]. In [10], this molecule displayed a GI50 of 0.38 µM. For the same molecule, the IC50 in [1] was more than 90 µg/mL; in assay [2], 0.64 µg/mL (≈ 2.16 µM); in assay [3], 1.62 µg/mL (≈ 5.47 µM); in assay [4] it was 0.18 µg/mL (≈ 0.607 µM).
With `CCN(CC)CCCC(C)Nc1nccc2c1[nH]c1ccccc12` (configuration not stated), the GI50 in assay [11] stood at 22.9 µM; in assay [6], 22.8 µM; in [7], 12.2 µM; in assay [8] it was 16.4 µM; in assay [9], 24 µM; in assay [10], 4.5 µM. Also, the concentration for half-maximal inhibition (IC50) in assay [1] was more than 90 µg/mL; in assay [2], 0.42 µg/mL (≈ 1.29 µM); in assay [3], 3 µg/mL (≈ 9.25 µM); in [4], 0.13 µg/mL (≈ 0.401 µM).
Take `c1ccc2c(c1)[nH]c1c(N3CCCCC3)nccc12`: the half-maximal inhibitory concentration (IC50) in assay [1] was more than 90 µg/mL; in assay [2] it was 1.2 µg/mL (≈ 4.77 µM); in assay [3], more than 30 µg/mL; in assay [4] it was 0.13 µg/mL (≈ 0.517 µM).
On to `c1ccc2c3cc[nH]c(N4CCN(N5CCCC5)CC4)c-3nc2c1`, for which the 50% inhibitory concentration (IC50) is more than 90 µg/mL in assay [1], 0.45 µg/mL (≈ 1.4 µM) in [2], 6.1 µg/mL (≈ 19 µM) in assay [3] and 0.52 µg/mL (≈ 1.62 µM) in assay [4].
The matching figures for `CN(C)CCCNc1nccc2c1[nH]c1ccccc12`: more than 90 µg/mL, 0.45 µg/mL (≈ 1.68 µM), 4.2 µg/mL (≈ 15.7 µM) and 28.1 µg/mL (≈ 105 µM).
